Our source for the GI50 values is US20230338370A1, “Treatment of Cancer with TOR Kinase Inhibitors” (Signal Pharmaceuticals, LLC, priority 2012, published 2023).

Each structure is given as a SMILES string.

Common to all, as to assay: Growth inhibition assay for Breast Cancer (BC) Cell lines
Common to all, as to assay type: cell-based

The subject of one assay is SK-BR-3. The conditions noted are these: Homo sapiens; SK-BR-3, Her2+; 96 hours, Cell Titer-Glo. How it is done:
(§1) Growth inhibition assay for Breast Cancer (BC) Cell lines. Compounds 1 (a TOR kinase inhibitor set forth herein having molecular formula C16H16N8O) and 2 (a TOR kinase inhibitor set forth herein having molecular formula C17H18N8O2) were dissolved in dimethyl sulfoxide (DMSO) to prepare a 10 mM stock solution. A serial titration was performed to produce a working concentration range of 1.5 µM to 10 mM. Aliquots to produce final concentrations of 1.5 nM to 10 µM were spotted via an acoustic dispenser (EDC ATS-100) into an empty 384-well plate. Compounds 1 and 2 were spotted in a 10-point serial dilution fashion (3-fold dilution) in duplicate within the plate. The DMSO concentration was kept constant for a final assay concentration of 0.1% DMSO. Plates were replicated for use with different cell lines and testing periods. After compound plate replication, all plates were sealed (Agilent ThermoLoc) and stored at -20° C. for up to 1 month. […] When ready for testing, plates were removed from the freezer, thawed, and unsealed just prior to the addition of the test cells. Prior to testing, cells were grown and expanded in culture flasks to provide sufficient amounts of starting material. Cells were then diluted to the appropriate densities and added directly to the compound-spotted 384-well plates. Cells were allowed to grow for 96 hours at 37° C./5% CO2. At the time when compound was added (t0), initial cell number was assessed via a viability assay (Cell Titer-Glo) by quantifying the level of luminescence generated by ATP present in viable cells. After 96 hours, cell viability of compound-treated cells was assessed via Cell Titer-Glo and luminescence measurement. Cell lines were assayed for growth inhibition by Compounds 1 and 2 in at least 3 independent tests. A control cell line (the lung tumor cell line, A549) was included in each of the assays. The compound response against this control cell line was monitored closely to enable comparison of the data generated through the assay period. All data were normalized and presented as a percentage of the DMSO-treated cells. Results were then expressed as a GI50 value. The GI50 value corrects for the cell count at time zero.

The test system of a further assay is AU565. The settings on record: Homo sapiens; AU565, Her2+; 96 hours, Cell Titer-Glo. As for the experimental part: as §1
For orientation: In ATP-based viability assays light output follows the ATP content of the culture.

The subject of the next assay is MDA-MB-175-VII. The settings on record: Homo sapiens, ER+/PR+, 96 hours, Cell Titer-Glo. How it is done: as §1
For a further assay, the system named is MDA-MB-453. The conditions noted are these: Homo sapiens; MDA-MB-453, Her2+; 96 hours, Cell Titer-Glo. How it is done:
as §1

The test system of a further assay is HCC1954. The settings on record: Homo sapiens; HCC1954, Her2+; 96 hours, Cell Titer-Glo. How it is done:
as §1

For the next assay, the system named is EFM-19. The settings on record: Homo sapiens; EFM-19, ER+/PR+; 96 hours, Cell Titer-Glo. How it is done:
as §1

Another assay relates to MDA-MB-415. The conditions noted are these: Homo sapiens; MDA-MB-415, ER+/PR+; 96 hours, Cell Titer-Glo. As for the experimental part:
as §1

Another assay deals with MDA-MB-361. The conditions noted are these: Homo sapiens; MDA-MB-361, Her2+; 96 hours, Cell Titer-Glo. As for the experimental part:
as §1

Another assay relates to MCF7. The conditions noted are these: Homo sapiens; MCF7, ER+/PR+; 96 hours, Cell Titer-Glo. How it is done: as §1
In a further assay the test system is HCC1500. The conditions noted are these: HCC1500, ER+/PR+; 96 hours, Cell Titer-Glo. As for the experimental part:
as §1

The subject of a further assay is UACC-812. The conditions noted are these: Homo sapiens; UACC-812, Her2+; 96 hours, Cell Titer-Glo. As for the experimental part:
as §1

The subject of a further assay is EFM-192A. The conditions noted are these: Her2+, 96 hours, Cell Titer-Glo. How it is done:
as §1

The subject of the next assay is T47D. The conditions noted are these: Homo sapiens, ER+/PR+, 96 hours, Cell Titer-Glo. As for the experimental part: as §1
The subject of the next assay is HCC1428. The settings on record: Homo sapiens; HCC1428, ER+/PR+; 96 hours, Cell Titer-Glo. As for the experimental part:
as §1

The subject of the next assay is ZR-75-30. The settings on record: Homo sapiens; ZR-75-30, Her2+; 96 hours, Cell Titer-Glo. How it is done:
as §1

Another assay concerns MDA-MB-134-VI. The settings on record: Homo sapiens, ER+/PR+, 96 hours, Cell Titer-Glo. As for the experimental part:
as §1

The test system of a further assay is HCC1569. The conditions noted are these: Homo sapiens; HCC1569, Her2+; 96 hours, Cell Titer-Glo. As for the experimental part:
as §1

For the next assay, the system named is BT-483. The settings on record: Homo sapiens; BT-483, ER+/PR+; 96 hours, Cell Titer-Glo. As for the experimental part: as §1
The test system of the next assay is KPL-1. The conditions noted are these: KPL-1, ER+/PR+; 96 hours, Cell Titer-Glo. How it is done:
as §1

The next assay deals with CAMA-1. The conditions noted are these: Homo sapiens; CAMA-1, ER+/PR+; 96 hours, Cell Titer-Glo. As for the experimental part:
as §1

Another assay relates to HCC202. The settings on record: HCC202, Her2+; 96 hours, Cell Titer-Glo. As for the experimental part: as §1
The next assay relates to BT-474. The settings on record: Homo sapiens; BT-474, Her2+; 96 hours, Cell Titer-Glo. How it is done: as §1
In a further assay the test system is ZR-75-1. The conditions noted are these: Homo sapiens; ZR-75-1, ER+/PR+; 96 hours, Cell Titer-Glo. As for the experimental part:
as §1

As usually defined, the GI50 is the concentration that inhibits growth by half. A low value points to greater sensitivity of the cells. Regarding `COCCN1C(=O)CNc2ncc(-c3ccc(-c4nnc[nH]4)nc3C)nc21` [Compound 2, 1-(2-methoxyethyl)-7-(2-methyl-6-(4H-1,2,4-triazol-3-yl)pyridin-3-yl)-3,4-dihydropyrazino[2,3-b]pyrazin-2(1H)-one], the GI50 with SK-BR-3 was 66.8 nM; with AU565, 58.2 nM; in the assay with MDA-MB-175-VII, 17 nM; in the assay with MDA-MB-453, 44.5 nM; with HCC1954 it was 73.3 nM; in the assay with EFM-19, 21.1 nM. The GI50 in the assay with MDA-MB-415 turned out to be 53.4 nM; in the assay on MDA-MB-361, 28.5 nM; in the assay with MCF7, 83.4 nM; in the assay on HCC1500, 24.6 nM; with UACC-812 it was 32.1 nM; in the assay on EFM-192A it was 74.1 nM. Moreover, the GI50 turned out to be 21.4 nM in the assay on T47D; 96.5 nM with HCC1428; 18.8 nM in the assay on ZR-75-30; 69.5 nM with MDA-MB-134-VI; 120 nM in the assay on HCC1569; 17.3 nM in the assay on BT-483. For the same compound, the GI50 in the assay with KPL-1 worked out at 50.7 nM; with CAMA-1, 44.6 nM; in the assay with HCC202, 8.9 nM; with BT-474 it was 78.2 nM; in the assay on ZR-75-1 it was 10.3 nM.
